Laboratory results published in the NIST ThermoML archive (doi:10.1016/j.jct.2014.09.005).

Experiments:
[1] = xn = mol fraction of the nth substance listed; details: 101 kPa, Liquid; for viscosity: Capillary tube (Ostwald / Ubbelohde) method; for mass density: Vibrating tube method
[2] = refractive index (Na D-line) (dimensionless); xn = mol fraction of the nth substance listed; details: 101 kPa, Liquid, Standard Abbe refractometry

NC1CCCCC1 [cyclohexylamine] + CCCCCCCO
Details | mass density, [1] [kg/m3] | refractive index, [2] | viscosity, [1] [mPa·s]
293.15 K, x2 = 0.1018 | 863.57 | – | 2.454
293.15 K, x2 = 0.1499 | 861.92 | 1.45459 | 2.635
293.15 K, x2 = 0.1996 | 860.22 | 1.45301 | 2.838
293.15 K, x2 = 0.2982 | 856.82 | 1.44986 | 3.308
293.15 K, x2 = 0.3979 | 853.09 | 1.44669 | 3.844
293.15 K, x2 = 0.4004 | – | 1.44661 | –
293.15 K, x2 = 0.4465 | 851.2 | 1.44519 | 4.118
293.15 K, x2 = 0.4931 | 849.3 | 1.44365 | 4.381
293.15 K, x2 = 0.5432 | 847.06 | 1.44192 | 4.66
293.15 K, x2 = 0.6008 | 844.43 | 1.43985 | 4.98
293.15 K, x2 = 0.6598 | 841.57 | 1.43777 | 5.267
293.15 K, x2 = 0.6969 | – | 1.4364 | –
293.15 K, x2 = 0.7019 | 839.35 | – | 5.475
293.15 K, x2 = 0.7479 | 836.94 | 1.43438 | 5.687
293.15 K, x2 = 0.7967 | 834.16 | 1.43236 | 5.916
293.15 K, x2 = 0.8466 | 831.39 | 1.4305 | 6.158
293.15 K, x2 = 0.8935 | 828.7 | 1.42866 | 6.421
293.15 K, x2 = 0.9432 | 825.75 | 1.42665 | 6.717
298.15 K, x2 = 0.1018 | 859.27 | 1.45356 | 2.178
298.15 K, x2 = 0.1499 | 857.64 | 1.45216 | 2.338
298.15 K, x2 = 0.1996 | 856.01 | 1.45053 | 2.502
298.15 K, x2 = 0.2982 | 852.71 | 1.44763 | 2.892
298.15 K, x2 = 0.3979 | 849.06 | – | 3.334
298.15 K, x2 = 0.4004 | – | 1.44444 | –
298.15 K, x2 = 0.4465 | – | 1.44298 | –
298.15 K, x2 = 0.4565 | 847.21 | – | 3.558
298.15 K, x2 = 0.4931 | 845.34 | 1.44143 | 3.776
298.15 K, x2 = 0.5432 | 843.14 | 1.43977 | 4.007
298.15 K, x2 = 0.5946 | – | 1.43797 | –
298.15 K, x2 = 0.6008 | 840.57 | – | 4.267
298.15 K, x2 = 0.6598 | 837.76 | 1.43561 | 4.478
298.15 K, x2 = 0.7019 | 835.59 | 1.43404 | 4.682
298.15 K, x2 = 0.7479 | 833.22 | 1.43244 | 4.828
298.15 K, x2 = 0.7967 | 830.49 | 1.43053 | 5.057
298.15 K, x2 = 0.8466 | 827.78 | 1.42852 | 5.232
298.15 K, x2 = 0.8935 | 825.11 | 1.42666 | 5.43
298.15 K, x2 = 0.9432 | 822.21 | 1.42476 | 5.673
303.15 K, x2 = 0.1018 | 854.9 | 1.45099 | 1.931
303.15 K, x2 = 0.1499 | 853.33 | 1.44958 | 2.059
303.15 K, x2 = 0.1996 | 851.74 | 1.44805 | 2.204
303.15 K, x2 = 0.2982 | 848.55 | 1.4452 | 2.531
303.15 K, x2 = 0.3979 | 845 | 1.44224 | 2.895
303.15 K, x2 = 0.4465 | 843.2 | 1.44068 | 3.079
303.15 K, x2 = 0.4931 | 841.35 | 1.43923 | 3.258
303.15 K, x2 = 0.5432 | 839.17 | 1.43752 | 3.443
303.15 K, x2 = 0.5946 | – | 1.43575 | –
303.15 K, x2 = 0.6008 | 836.68 | 1.43554 | 3.658
303.15 K, x2 = 0.6598 | 833.93 | 1.43355 | 3.694
303.15 K, x2 = 0.7019 | 831.8 | 1.432 | 4.005
303.15 K, x2 = 0.7479 | 829.48 | 1.43042 | 3.974
303.15 K, x2 = 0.7967 | 826.8 | 1.42836 | 4.317
303.15 K, x2 = 0.8466 | 824.12 | 1.42657 | 4.283
303.15 K, x2 = 0.8935 | 821.5 | 1.42455 | 4.444
303.15 K, x2 = 0.9432 | 818.64 | 1.42262 | 4.626
